The source of these data is US20140357706A1, “Stearate Compounds” (THE UAB RESEARCH FOUNDATION, priority 2011, published 2014).

In assay [1] the test system is MDA-MB-435 human breast cancer cells. As to the kind of experiment: MDA-MB-435 lung metastasis model, experiment 2 (diet started with chemotherapy after surgery). The class given is in vivo, mice. The method, then:
3-4 week old female athymic mice were purchased from Harlan Sprague Dawley, Inc. (Indianapolis, Ind.) and were maintained in microisolater cages in pathogen-free facilities. […] The diets were prepared by Harlan-Teklad (Madison, Wis.). The animals were fed ad libitum and the amount of food consumed was recorded. Mice were anesthetized with 3% isoflurane in 2.5% O2 and weighed weekly. All in vivo procedures were approved by the Institutional Animal Care and Use Committee (IACUC), University of Alabama at Birmingham (UAB).
MDA-MB-435 human breast cancer cells (obtained from Dr. Dan Welch; UAB) were grown and maintained in DMEM:F12 supplemented with 5% FBS, 2 mM glutamine, 1 mM sodium pyruvate, 0.2× non-essential amino acids and 1% penicillin/streptomycin (5% CO2). Cells were grown to 80-90% confluence prior to preparation for injection. To detach cells from the plates, cells were washed with PBS and then treated with 3 mM versene. […]
Lungs were placed under the dissecting microscope (Fisher Scientific, Hanover Park, Ill.) for measurement of metastatic tumor size. Tumor size is expressed as an average of the longest and shortest diameter. The tumors were split into three groups according to their sizes (<0.1 cm, small tumor; 0.1-0.2 cm, medium tumor; >0.2 cm, large tumor), and the number of tumors per mouse was counted separately.

The test system of a further assay is lung metastatic tumors. As to the kind of experiment: Immunohistochemistry of lung metastatic tumors (CD31, Ki67, caspase-3), experiment 2. In kind it is in vivo, mice. The protocol: Paraffin sections were prepared as described previously (21). 5 μm thick sections were cut from the formalin fixed, paraffin embedded tissue blocks and floated onto charged glass slides (Super-Frost Plus, Fisher Scientific, Pittsburgh, Pa.) and dried overnight at 60° C. A hemotoxylin and eosin stained section was obtained from each tissue block. All sections for immunohistochemistry were deparaffinized and hydrated using graded concentrations of ethanol to deionized water.
CD31 immunostaining was done as described previously^(21). Briefly, the tissue sections were subjected to pretreatment with 0.5 M tris buffer (pH 10). All sections were washed gently in deionized water, then transferred in to 0.05 M Tris-based solution in 0.15 M NaCl with 0.1% v/v Triton-X-100, pH 7.6 (TBST). Endogenous peroxidase was blocked with 3% hydrogen peroxide for 10 min. To reduce further nonspecific background staining, slides were incubated with avidin (Jackson ImmunoResearch, West Grove, Pa.) and biotin blocking solutions (Sigma, to St. Louis, Mo.) for 15 min each, and 3% normal goat serum (Sigma, St. Louis, Mo.) for 20 min. All slides were then incubated at 4° C. overnight with rabbit polyclonal antibody against CD31 (1:200 dilution) (Abeam, Cambridge, Mass.). […]
Bioquant® Image Analysis software (Rtm Biometrics, Nashville, Tenn.) was used to evaluate the immunostaining. […] The numbers of positive and negative cells in these hot spots were then counted and averaged at 5 magnification X40. The percentage of cells stained with Ki67 or caspase-3 was subsequently calculated for comparison. For CD31 immunostaining, the MVD was measured based on Weidner's method (37). […] The number of microvessels in these hot spots was counted at magnification X40, and the density was then calculated for comparison. Each positive endothelial cell cluster of immunoreactivity was counted as an individual vessel in addition to the morphologically identifiable vessels with a lumen.

With `CC(=O)O[C@H]1C(=O)[C@@]2(C)[C@H]([C@H](OC(=O)c3ccccc3)[C@]3(O)C[C@H](OC(=O)[C@H](O)[C@@H](NC(=O)c4ccccc4)c4ccccc4)C(C)=C1C3(C)C)[C@]1(OC(C)=O)CO[C@@H]1C[C@@H]2O` [paclitaxel], the “Incidence of lung metastases” value in assay [1] (PTX vs same diet without PTX, p<0.01, about 20 mg/kg i.p.) was “significantly lower”. Moreover, the “Number of lung metastases” value in assay [1] (two-way ANOVA, PTX VS. no PTX, diet VS. control diet) is listed as “significantly reduced”. In addition, the Caspase-3 positive cells entry in the assay on lung metastatic tumors (compared to control diet group) is given as “significantly increased”. The “Percentage of Ki67 positive cells (proliferation)” value in the assay on lung metastatic tumors (two-way ANOVA) was “significantly inhibited”. Besides, the “Microvessel density (MVD), CD31” value with lung metastatic tumors (two-way ANOVA, PTX VS. no PTX, diet VS. control diet group) is given as “decreased the MVD significantly”.
